System: HLA-A*24
Assay: MHC binding assay, UV-ligand exchange with beta2m ELISA (exchange yield), HLA-A*24
Design: species or system human
Conditions: binding to HLA-A*24, UV-ligand exchange
Text: Candidate peptides for T cell based therapies according to the present invention were further tested for their MHC binding capacity (affinity). The individual peptide-MHC complexes were produced by UV-ligand exchange, where a UV-sensitive peptide is cleaved upon UV-irradiation, and exchanged with the peptide of interest as analyzed. Only peptide candidates that can effectively bind and stabilize the peptide-receptive MHC molecules prevent dissociation of the MHC complexes. To determine the yield of the exchange reaction, an ELISA was performed based on the detection of the light chain (β2m) of stabilized MHC complexes. The assay was performed as generally described in Rodenko et al. (Rodenko et al., 2006).
96 well MAXISorp plates (NUNC) were coated over night with 2 ug/ml streptavidin in PBS at room temperature, washed 4× and blocked for 1 h at 37° C. in 2% BSA containing blocking buffer. […] Peptide-MHC monomers of the UV-exchange reaction were diluted 100 fold in blocking buffer. Samples were incubated for 1 h at 37° C., washed four times, incubated with 2 ug/ml HRP conjugated anti-β2m for 1h at 37° C., washed again and detected with TMB solution that is stopped with […]. Absorption was measured at 450 nm. Candidate peptides that show a high exchange yield (preferably higher than 50%, most preferred higher than 75%) are generally preferred for a generation and production of antibodies or fragments thereof, and/or T cell receptors or fragments thereof, as they show sufficient avidity to the MHC molecules and prevent dissociation of the MHC complexes.

Peptide exchange (MHC class I binding score, peptide exchange yield), ++ (20%-49% = ++):
246 (KYLSVQLTL; listed as Homo sapiens) [compound 246]
309 (KYYRQTLLF; listed as Homo sapiens) [compound 309]
362 (VYNYAEQTL; listed as Homo sapiens) [compound 362]
288 (VYPDTVALTF; listed as Homo sapiens) [compound 288]
138 (VYNAVSTSF; listed as Homo sapiens) [compound 138]
152 (KFFDDLGDELLF; listed as Homo sapiens) [compound 152]
123 (VYTPVLEHL; listed as Homo sapiens) [compound 123]

Peptide exchange (MHC class I binding score, peptide exchange yield), ++++ (>=75% = ++++):
185 (QYLVHVNDL; listed as Homo sapiens) [compound 185]
220 (SYSEIKDFL; listed as Homo sapiens) [compound 220]
289 (FFHEGQYVF; listed as Homo sapiens) [compound 289]
274 (KQLDIANYELF; listed as Homo sapiens) [compound 274]
296 (SYQVIFQHF; listed as Homo sapiens) [compound 296]
149 (SYGTVSQI; listed as Homo sapiens) [compound 149]
298 (AYKSEVVYF; listed as Homo sapiens) [compound 298]
206 (NYLDVATFL; listed as Homo sapiens) [compound 206]
311 (EYLQNLNHI; listed as Homo sapiens) [compound 311]
292 (FYPQIINTF; listed as Homo sapiens) [compound 292]
97 (TYTFLKETF; listed as Homo sapiens) [compound 97]
262 (VYSSQFETI; listed as Homo sapiens) [compound 262]
208 (TYLEKIDGF; listed as Homo sapiens) [compound 208]
272 (RYVFPLPYL; listed as Homo sapiens) [compound 272]
197 (IFTDIFHYL; listed as Homo sapiens) [compound 197]
379 (VFIAQGYTL; listed as Homo sapiens) [compound 379]
290 (KYGDFKLLEF; listed as Homo sapiens) [compound 290]
305 (NYENKQYLF; listed as Homo sapiens) [compound 305]

Peptide exchange (MHC class I binding score, peptide exchange yield), +++ (50%-75% = +++):
229 (IYQFVADSF; listed as Homo sapiens) [compound 229]
361 (TYADIGGLDNQI; listed as Homo sapiens) [compound 361]
118 (KYLNSVQYI; listed as Homo sapiens) [compound 118]
232 (YYLSDSPLL; listed as Homo sapiens) [compound 232]
302 (LYLPVHYGF; listed as Homo sapiens) [compound 302]
145 (VYALKVRTI; listed as Homo sapiens) [compound 145]
194 (VYQSLSNSL; listed as Homo sapiens) [compound 194]
205 (VYPVVLNQI; listed as Homo sapiens) [compound 205]
207 (LYSDAFKFIVF; listed as Homo sapiens) [compound 207]
117 (IYLSDLTYI; listed as Homo sapiens) [compound 117]
386 (TFSDVEAHF; listed as Homo sapiens) [compound 386]
370 (RFIGIPNQF; listed as Homo sapiens) [compound 370]
266 (KYTDWTEFL; listed as Homo sapiens) [compound 266]
219 (SYLKAVFNL; listed as Homo sapiens) [compound 219]
254 (KYLESSATF; listed as Homo sapiens) [compound 254]
294 (RFPVQGTVTF; listed as Homo sapiens) [compound 294]
143 (KYIFQLNEI; listed as Homo sapiens) [compound 143]
127 (QYFTGNPLF; listed as Homo sapiens) [compound 127]
383 (RYKPGEPITF; listed as Homo sapiens) [compound 383]
369 (VYTHEVVTL; listed as Homo sapiens) [compound 369]
307 (GYAFTLPLF; listed as Homo sapiens) [compound 307]
131 (EYLDRIGQLFF; listed as Homo sapiens) [compound 131]
244 (VHFEDTGKTLLF; listed as Homo sapiens) [compound 244]
258 (AYAQLGYLL; listed as Homo sapiens) [compound 258]
133 (KYLEDMKTYF; listed as Homo sapiens) [compound 133]
376 (VYTPVASRQSL; listed as Homo sapiens) [compound 376]
233 (QYLTAAALHNL; listed as Homo sapiens) [compound 233]
165 (EYFTPLLSGQF; listed as Homo sapiens) [compound 165]
314 (RYFKGDYSI; listed as Homo sapiens) [compound 314]
317 (VFDTSIAQLF; listed as Homo sapiens) [compound 317]
169 (NYITGKGDVF; listed as Homo sapiens) [compound 169]
195 (AYIKGGWIL; listed as Homo sapiens) [compound 195]
384 (RYFDVGLHNF; listed as Homo sapiens) [compound 384]
188 (GYKTFFNEF; listed as Homo sapiens) [compound 188]
373 (GYISNGELF; listed as Homo sapiens) [compound 373]
388 (IYGEKTYAF; listed as Homo sapiens) [compound 388]
372 (VYVIEPHSMEF; listed as Homo sapiens) [compound 372]
